According to PubChem BioAssay (NCI):
Several values for one entry are separate records, joined by “and”; a condition that tells them apart may be missing. Identical values can stand only once.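 Values below derive from 48-hour exposures of cells grown in 96-well plates, with endpoints linearly interpolated between the two concentrations bracketing the appropriate inhibition level. GI50 = concentration required for 50% inhibition of growth. TGI: concentration producing complete growth inhibition.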

Assays:
Assay in all cases: NCI-60 cell line screen, 48 h
PC-3 prostate = test system: PC-3 prostate
T-47D breast = test system: T-47D breast
MCF7 breast = test system: MCF7 breast
KM20L2 colon = test system: KM20L2 colon
DLD-1 colon = test system: DLD-1 colon
XF 498 CNS = test system: XF 498 CNS
SNB-78 CNS = test system: SNB-78 CNS
LXFL 529 NSCLC = test system: LXFL 529 NSCLC
DMS 114 small cell lung = test system: DMS 114 small cell lung
M19-MEL melanoma = test system: M19-MEL melanoma

SMILES | GI50 (PC-3 prostate) | TGI (PC-3 prostate) | TGI (T-47D breast) | GI50 (MCF7 breast) | TGI (MCF7 breast) | GI50 (T-47D breast) | TGI (KM20L2 colon) | TGI (DLD-1 colon) | TGI (XF 498 CNS) | TGI (SNB-78 CNS) | TGI (LXFL 529 NSCLC) | TGI (DMS 114 small cell lung) | TGI (M19-MEL melanoma)
COc1cccc([C@H]2CC(=O)c3cc4c(cc3N2)OCO4)c1 | 0.0927 µM | > 100 µM | > 100 µM | 0.0568 µM | > 100 µM |  |  |  |  |  |  |  | 
O=C(O)CSCc1cccc2ccccc12 |  | > 100 µM | > 100 µM |  | > 100 µM |  |  |  |  |  |  |  | 
CNC(=O)c1cc(COc2nnc(Nc3ccc(Cl)cc3)c3ccoc23)ccn1 | 9.39 µM and > 10 µM | > 57.7 µM | 12.5 µM and > 10 µM | 7.17 µM and > 10 µM | 36.1 µM and > 10 µM | 2.87 µM and 5.77 µM |  |  |  |  |  |  | 
COc1cc2c(cc1OC)C13CCN4C=C5CCOC6CC(=O)N2C1C6C5CC43 (configuration not stated) |  | > 100 µM | > 100 µM |  | > 100 µM |  |  |  |  |  |  |  | 
Cc1cc(C)nc(NC(N)=NCCc2ccccc2)n1 | 3.88 µM | > 100 µM | 43.6 µM | 2.72 µM | 73.6 µM | 2.35 µM |  |  |  |  |  |  | 
O=C(c1ccccc1)c1c(NCC(O)CN2CCCC2)n(Cc2ccccc2)c(=O)n(Cc2ccccc2)c1=O (configuration not stated) | 17.5 µM | 36.6 µM | 45.7 µM | 42.5 µM | > 100 µM | 21.3 µM |  |  |  |  |  |  | 
CC(C)(C)OC(=O)NCCNC1=CC(=O)c2nc3ccccc3c3ccnc1c23 | 15.1 µM | 49.2 µM | > 100 µM | 7.42 µM | 24.4 µM | 25.8 µM |  |  |  |  |  |  | 
CN(C)CCCOc1ccccc1NC1=C(Cl)C(=O)C(Nc2ccccc2OCCCN(C)C)=C(Cl)C1=O | 0.696 µM | 2.19 µM | 0.591 µM | 0.175 µM | 0.398 µM | 0.209 µM |  |  |  |  |  |  | 
C(=Nc1ccccc1)C1CCCC[N-]1.C(=Nc1ccccc1)C1CCCC[N-]1.[Cu+2].[O-][Cl+3]([O-])([O-])O (configuration not stated) | 12.3 µM | 34.2 µM | > 100 µM | 23.8 µM | > 100 µM | 21.6 µM |  |  |  |  |  |  | 
CCC1(C)NN=c2s/c(=C/c3ccc(OC)cc3)c(=O)n2N1 (configuration not stated) |  |  |  |  |  |  | > 100 µM | > 100 µM | > 100 µM | > 100 µM | > 100 µM |  | 
NNC(=S)N/N=C(\CCCC(=O)NCCc1ccccc1)CC(=O)c1ccccc1 |  |  |  |  |  |  | > 100 µM | > 100 µM |  | > 100 µM | > 100 µM | > 100 µM | > 100 µM
Cc1ccc(C(=O)N(CCCN)[C@@H](c2nc3cc(Cl)ccc3c(=O)n2Cc2ccccc2)C(C)C)cc1 | < 0.01 µM | 2.32 µM and 1.76 µM | 1.98 µM and 1.67 µM | < 0.01 µM | 1.59 µM and 1.33 µM | < 0.01 µM |  |  |  |  |  |  | 
CN(C)c1ccc2c(c1)C(=O)N(OS(=O)(=O)c1ccc([N+](=O)[O-])cc1)C2=O |  |  |  |  |  |  |  | 86.8 µM | 35.1 µM | 73.8 µM | 37 µM | > 10 µM | 52.7 µM
COc1cccc(C2CC(c3cc(OC)c(OC)c(OC)c3)=NN2)c1 (configuration not stated) | 7.26 µM | 45.9 µM | > 100 µM | 3.85 µM | 26.1 µM | 20.2 µM |  |  |  |  |  |  | 
O=C(O)CN(c1ccccc1)S(=O)(=O)c1ccc(NC(=O)c2ccccc2)cc1 |  |  |  |  |  |  | > 100 µM | > 100 µM | > 100 µM |  | > 100 µM |  | > 100 µM
COC1=CC(c2ccc[nH]2)=N/C1=C\c1[nH]c(C)c(C(=O)OCc2ccccc2)c1C | 0.112 µM | 20.6 µM | 1.6 µM | 0.0894 µM | 0.836 µM | 0.252 µM |  |  |  |  |  |  | 
CCCN(CCC)CCCNCc1cc(I)cc(C)c1O | 15.1 µM | 28.4 µM | 42.1 µM | 17.6 µM | 31.8 µM | 15.9 µM |  |  |  |  |  |  | 
COc1ccc2c(c1)C(=O)c1c-2n(CCCN)c(=O)c2ccccc12 | 0.206 µM | 1.26 µM | 0.109 µM | < 0.01 µM | 1.07 µM | < 0.0218 µM |  |  |  |  |  |  | 
C=CCC1OC(C)(C)Oc2ccc(OCOCCOC)cc21 (configuration not stated) |  |  |  |  |  |  |  |  |  |  | > 100 µM | > 100 µM | 
CO[C@H](C(=O)[C@@H](O)[C@@H](C)O)[C@@H]1Cc2cc3cc(O[C@H]4C[C@@H](O[C@H]5C[C@@H](O)[C@H](O)C(C)O5)[C@H](O)C(C)O4)c(C)c(O)c3c(O)c2C(=O)[C@H]1O[C@H]1C[C@@H](O[C@H]2C[C@@H](O[C@H]3C[C@@H](OC)[C@H](O)C(C)O3)[C@@H](O)C(C)O2)C(O)(O)C(C)O1 (some centres not stated) | 0.396 µM | > 25 µM | 24.6 µM | 0.0108 µM | > 9.61 µM | 0.0543 µM |  |  |  |  |  |  | 
COc1cc(CCc2cccnc2)cc(OC)c1OC |  |  |  |  |  |  | > 100 µM | > 100 µM |  | > 100 µM | > 100 µM | > 100 µM | > 100 µM
C[n+]1c(/C=C\C=C\N2CCCCC2)sc2ccccc21 | 0.237 µM | 2.97 µM | 2.72 µM | 0.346 µM | 11.8 µM | 0.2 µM |  |  |  |  |  |  | 
CN1CCc2cc3c(cc2C1O)OCO3 (configuration not stated) | 17 µM and > 100 µM | 42.7 µM and > 100 µM |  |  | 23.3 µM and > 100 µM |  |  |  |  |  |  |  | 
COC(=O)Cc1cc(OC)c(OC)cc1Br |  |  |  |  |  |  | > 100 µM | > 100 µM |  | > 100 µM | > 100 µM | > 100 µM | > 100 µM
NS(=O)(=O)c1ccc(NC(=O)c2ccc(NC3=C(Cl)C(=O)N(Cc4ccccc4)C3=O)cc2)cc1 | 12.8 µM | 34 µM | > 100 µM | 3.03 µM | > 100 µM | 18.4 µM |  |  |  |  |  |  | 
CN1C(=O)c2c(ccc3c2OCO3)C2C(O)Cc3cc4c(cc3C21)OCO4 (configuration not stated) |  | > 100 µM |  |  | > 100 µM |  |  |  |  |  |  |  | 
Cc1ccc(S(=O)(=O)N/N=C/c2oc(-c3cccc([N+](=O)[O-])c3)c(-c3cccc([N+](=O)[O-])c3)c2[N+](=O)[O-])cc1 |  |  |  |  |  |  | > 100 µM | > 100 µM | > 100 µM |  | > 100 µM |  | 
Cc1ccccc1NC(=S)Nc1ccccn1 | > 100 µM | > 100 µM | > 100 µM | > 100 µM | > 100 µM | 55.7 µM |  |  |  |  |  |  | 
O=P([O-])(O)OP(=O)([O-])O.[NH-][C@H]1CCCC[C@@H]1[NH-].[OH-].[OH-].[Pt+4] | 25.2 µM | 68.2 µM | 61.4 µM | 32.1 µM | > 100 µM | 25 µM |  |  |  |  |  |  | 
CCN(CC)CCNC(=O)c1ccccc1NC(=O)C(=O)Nc1ccccc1C(=O)NCCN(CC)CC |  |  |  |  |  |  | > 100 µM | > 100 µM |  | > 100 µM |  | 79.7 µM | 57.5 µM
